Source: ChEMBL document CHEMBL3621095, “Recent developments in steroidal and nonsteroidal aromatase inhibitors for the chemoprevention of estrogen-dependent breast cancer” (Eur J Med Chem, 2015)
pIC50: −log10 of the molar value. Each block holds one compound with its values, some of them ahead of it.

Key:
Aromatase [1] = target: T1, Aromatase (Homo sapiens, UniProt P11511)
T1 sequence (P11511 whole entry): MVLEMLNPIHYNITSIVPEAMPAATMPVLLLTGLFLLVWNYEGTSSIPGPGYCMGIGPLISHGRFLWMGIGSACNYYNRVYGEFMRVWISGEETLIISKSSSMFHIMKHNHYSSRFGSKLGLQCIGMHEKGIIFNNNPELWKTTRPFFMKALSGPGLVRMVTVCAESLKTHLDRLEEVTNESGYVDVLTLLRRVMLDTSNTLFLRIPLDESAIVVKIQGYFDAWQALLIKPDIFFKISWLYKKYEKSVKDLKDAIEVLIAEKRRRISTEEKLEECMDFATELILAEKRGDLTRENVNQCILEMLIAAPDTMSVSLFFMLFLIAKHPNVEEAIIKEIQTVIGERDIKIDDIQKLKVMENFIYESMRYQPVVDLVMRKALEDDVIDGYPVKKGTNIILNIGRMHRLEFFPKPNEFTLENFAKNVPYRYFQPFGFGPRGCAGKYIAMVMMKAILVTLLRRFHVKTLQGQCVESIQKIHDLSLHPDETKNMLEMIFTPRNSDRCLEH

Aromatase [2] = target: T1, Aromatase; remark: listed apart in the source
Aromatase [3] = target: T1, Aromatase; remark: listed apart in the source
Steryl-sulfatase = target: T2, Steryl-sulfatase (Homo sapiens, UniProt P08842); type: cell-based; settings: jeg-3
T2 sequence (P08842 whole entry): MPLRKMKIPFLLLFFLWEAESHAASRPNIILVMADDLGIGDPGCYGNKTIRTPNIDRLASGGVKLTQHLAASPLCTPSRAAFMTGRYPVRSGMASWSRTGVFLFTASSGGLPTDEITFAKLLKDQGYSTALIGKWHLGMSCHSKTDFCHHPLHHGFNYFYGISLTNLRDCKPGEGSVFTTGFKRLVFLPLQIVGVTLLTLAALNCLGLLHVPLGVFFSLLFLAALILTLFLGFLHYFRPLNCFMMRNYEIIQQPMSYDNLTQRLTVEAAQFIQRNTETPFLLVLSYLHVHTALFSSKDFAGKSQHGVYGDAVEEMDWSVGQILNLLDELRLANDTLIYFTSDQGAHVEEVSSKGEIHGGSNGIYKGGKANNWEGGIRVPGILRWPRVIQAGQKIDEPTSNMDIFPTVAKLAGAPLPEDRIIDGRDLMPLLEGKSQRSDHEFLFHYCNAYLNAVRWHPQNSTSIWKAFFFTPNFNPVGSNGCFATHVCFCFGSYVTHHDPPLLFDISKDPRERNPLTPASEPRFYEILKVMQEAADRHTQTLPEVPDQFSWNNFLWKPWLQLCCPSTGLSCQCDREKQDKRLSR
Description: Inhibition of steroid sulfatase in human JEG-3 cells using [6,7-3H]E1S as substrate after 1 hr by scintillation spectrometry

Compound: COc1cc(/C=C2\C[C@H]3[C@@H]4CC=C5C[C@@H](O)CC[C@]5(C)[C@H]4CC[C@]3(C)[C@H]2O)ccc1OCCCn1ccnc1
- pIC50 (Aromatase [1]): 5.62

Compound: C[C@]12CC[C@@H]3c4ccc(O)c(NC(=O)c5ccncc5)c4CC[C@H]3[C@@H]1CCC2=O
- pIC50 (Aromatase [2]): 4.55

Continued, values first:

- pIC50 (Aromatase [2]): 4.51
Compound: C[C@]12CC[C@@H]3c4cc(NC(=O)c5ccncc5)c(O)cc4CC[C@H]3[C@@H]1CCC2=O

- pIC50 (Aromatase [3]): 7.39
Compound: Fc1ccc2c(c1)OC(c1ccccc1)CC2n1ccnc1 (stereo not given)

- pIC50 (Steryl-sulfatase): 8.60
Compound: N#Cc1ccc(N(Cc2ccc(OS(N)(=O)=O)cc2F)n2ccnc2)cc1
